Measured values from US20210283139A1, “BIFUNCTIONAL MOLECULES FOR TARGETING UCHL5” (AMPHISTA THERAPEUTICS LTD, priority 2018, published 2021).

How the values were obtained:
Format in all cases: cell-based
Brd3 [1] = target: T1, Brd3 (Homo sapiens, UniProt Q15059); experiment: Concentration-dependent BET degradation, immunoblot, HeLa cells; set-up: endogenous in cells; host or cells: HeLa; conditions: Brd3, 6 h treatment, 1 nM-10 μM
Method: (§1) Cell culture. HeLa (CCL-2) and HEK293 (CRL-1573) cells were purchased from ATCC and cultured in DMEM medium (Gibco) supplemented with 10% FBS, 100 μg/mL penicillin/streptomycin and L-glutamine. Cells were grown at 37° C. and 5% CO2, and were kept no longer than 30 passages. All cell lines were routinely tested for mycoplasma contamination using MycoAlert kit from Lonza.
(§2) Immunoblotting. proteins were separated by SDS-PAGE on NuPage 4-12% Bis-Tris gels, followed by transfer to Amersham Protran 0.45 NC nitrocellulose membrane (GE Healthcare) using wet transfer. Membranes were blocked using 5% w/v milk in Tris-buffered saline (TBS) with 0.1% Tween-20. Blots were probed (overnight at 4° C.) using anti-Brd2 (Abcam ab139690, 1:2,000 dilution), anti-Brd3 (Abcam ab50818, 1:500 dilution), and anti-Brd4 (Abcam ab128874, 1:1,000 dilution) primary antibodies, as appropriate. The next day, blots were washed with TBST and incubated (1 hr at RT) with anti-Tubulin hFAB-rhodamine (BioRad, 12004166) primary antibody, and either anti-rabbit IRDye 800CW (Licor 1:10,000 dilution) or anti-mouse IRDye 800CW (Licor 1:10,000 dilution) secondary antibody. Blots were developed using a Bio-Rad ChemiDoc MP Imaging System, and band quantification was performed using Image Studio software (LiCor). Band intensities were normalized to the tubulin loading control and reported as % of the average 0.1% DMSO vehicle intensity. Degradation data was plotted and analysed using Prism (Graphpad, version 8).
(§3) HeLa (5×10^5) and HEK293 (1×10^6) cells were seeded in standard 6-well plates (2 mL medium) overnight before treatment with compounds at the desired concentration (1 nM-10 μM), with a final DMSO concentration of 0.1% v/v. After 6 h treatment time, cells were washed with DPBS (Gibco) and lysed using 85 μL RIPA buffer (Sigma-Aldrich) supplemented with cOmplete Mini EDTA-free protease inhibitor cocktail (Roche) and benzonase. Lysates were clarified by centrifugation (20,000g, 10 min, 4° C.) and the total protein content of the supernatant was quantified using a Bradford colorimetric assay. Samples were prepared using equal amounts of total protein and LDS sample buffer (Invitrogen.
(§4) Representative blots in FIG. 3 show depletion of Brd2, Brd3 and Brd4 protein levels following treatment with increasing concentrations of representative compounds. Band intensities were normalized to the β-tubulin loading control and reported as % of the average 0.1% DMSO vehicle intensity, with each point representing mean±SEM of two independent experiments (n=2). Degradation data was plotted and analysed using Prism (Graphpad, version 8)

Brd2 [2] = target: T2, Brd2 (Homo sapiens, UniProt P25440); experiment: as above; set-up: endogenous in cells; host or cells: HeLa; conditions: Brd2, 6 h treatment, 1 nM-10 μM, read-out: Dmax (%) maximum degradation observed
Method: as §1, §2, §3, §4

Brd4 [3] = target: T3, Brd4 (Homo sapiens, UniProt O60885); experiment: Negative SAR: Brd4 immunoblot in HEK293 cells, active vs negative control; conditions: HEK293, 1 μM, 6 h, three independent treatments
T3 construct: endogenous in cells; host or cells: HEK293, HAP1, MV4-11
Method: as §2
HEK293 (1×10^6) cells incubated with DMSO, 1 μM 05IB11 or 1 μM 05IB6 for 6 h with a final DMSO concentration of 0.1% v/v. Cells from three independent treatments (n=3) were lysed with RIPA buffer and immunoblotted for Brd4 and β-tubulin.

Brd4 (S) [4] = target: T4, Brd4 (S) (Homo sapiens, UniProt O60885); experiment: Concentration-dependent BET degradation, immunoblot, HEK293 cells; conditions: 6 h treatment, 1 nM-10 μM, read-out: Dmax (%) maximum degradation observed
T4 construct: endogenous in cells; host or cells: HEK293, HeLa
Method: as §1, §2, §3, §4

Brd4 (L) [5] = target: T5, Brd4 (L) (Homo sapiens, UniProt O60885); experiment: as above; conditions: 6 h treatment, 1 nM-10 μM, read-out: Dmax (%) maximum degradation observed
T5 construct: endogenous in cells; host or cells: HEK293, HeLa
Method: as §1, §2, §3, §4

Brd4 (S) [6] = target: T4, Brd4 (S); experiment: Concentration-dependent BET degradation, immunoblot, HeLa cells; conditions: 6 h treatment, 1 nM-10 μM, read-out: Dmax (%) maximum degradation observed
Method: as §1, §2, §3, §4

Brd4 (L) [7] = target: T5, Brd4 (L); experiment: as above; conditions: 6 h treatment, 1 nM-10 μM, read-out: Dmax (%) maximum degradation observed
Method: as §1, §2, §3, §4

Brd3 [8] = target: T1, Brd3; experiment: Concentration-dependent BET degradation, immunoblot, HEK293 cells; set-up: endogenous in cells; host or cells: HEK293; conditions: HEK293, Brd3, 6 h treatment, 1 nM-10 μM
Method: as §1, §2, §3, §4

Brd2 [9] = target: T2, Brd2; experiment: as above; set-up: endogenous in cells; host or cells: HEK293; conditions: HEK293, Brd2, 6 h treatment, 1 nM-10 μM; read-out: Dmax (%) maximum degradation observed
Method: as §1, §2, §3, §4

Brd4 [10] = target: T3, Brd4; experiment: Mechanistic evaluation of Brd4 degradation in HAP1 cells (bortezomib, degrasyn or I-BET726 pre-treatment); conditions: 6 h
Method: as §2
(§5) HAP1 (1×10^6) cells were seeded in standard 6-well plates (2 mL medium) overnight before pre-treatment with inhibitors (10 μM bortezomib, 5 μM degrasyn or 1 μM I-BET726). After a 0.5 h pre-incubation time, cells were subsequently treated with vehicle, 0.1 μM MZ1 or 0.1 μM 05IB9, yielding a final overall DMSO concentration of 0.2% v/v. After 6 h incubation, cells were washed with DPBS (Gibco) and lysed using 85 μL RIPA buffer (Sigma-Aldrich) supplemented with cOmplete Mini EDTA-free protease inhibitor cocktail (Roche) and benzonase. Lysates were clarified by centrifugation (20,000 g, 10 min, 4° C.) and the total protein content of the supernatant was quantified using a Bradford colorimetric assay. Samples were prepared using equal amounts of total protein and LDS sample buffer (Invitrogen).
Representative blots from HAP1 lysates in FIG. 9 show depletion of Brd4 protein levels following 6 h treatment with 0.1 μM 05IB9 or MZ1, in the presence and absence of 5 μM degrasyn and 10 μM bortezomib. Brd4 band intensities were normalized to β-tubulin loading control and reported in FIG. 9B as % of the average 0.1% DMSO vehicle intensity. Each bar is mean±SEM of three independent experiments performed in duplicate (n=3). […] Furthermore, excess […] competes with 05IB9, resulting in reduced degradation of Brd4.

Brd4 [11] = target: T3, Brd4; experiment: Proteasome dependency of Brd4 degradation in HEK293 cells (bortezomib pre-treatment); conditions: HEK293, 1 μM, 6 h
Method: as §2
as §5, with “HEK293” for “HAP1”, “10” for “inhibitors (10”, “bortezomib.” for “bortezomib, 5 μM degrasyn or 1 μM I-BET726).”, “1” for “0.1”, “05IB6,” for “05IB9,”

Brd4 [12] = target: T3, Brd4; experiment: Mechanistic evaluation of Brd4 degradation in HEK293 cells (degrasyn or I-BET726 pre-treatment); conditions: 6 h
Method: as §2
as §5, with “HEK293” for “HAP1”, “(5” for “(10 μM bortezomib, 5”

[13] = read-out: Dmax (%) maximum degradation observed

T1 sequence (Q15059 whole entry): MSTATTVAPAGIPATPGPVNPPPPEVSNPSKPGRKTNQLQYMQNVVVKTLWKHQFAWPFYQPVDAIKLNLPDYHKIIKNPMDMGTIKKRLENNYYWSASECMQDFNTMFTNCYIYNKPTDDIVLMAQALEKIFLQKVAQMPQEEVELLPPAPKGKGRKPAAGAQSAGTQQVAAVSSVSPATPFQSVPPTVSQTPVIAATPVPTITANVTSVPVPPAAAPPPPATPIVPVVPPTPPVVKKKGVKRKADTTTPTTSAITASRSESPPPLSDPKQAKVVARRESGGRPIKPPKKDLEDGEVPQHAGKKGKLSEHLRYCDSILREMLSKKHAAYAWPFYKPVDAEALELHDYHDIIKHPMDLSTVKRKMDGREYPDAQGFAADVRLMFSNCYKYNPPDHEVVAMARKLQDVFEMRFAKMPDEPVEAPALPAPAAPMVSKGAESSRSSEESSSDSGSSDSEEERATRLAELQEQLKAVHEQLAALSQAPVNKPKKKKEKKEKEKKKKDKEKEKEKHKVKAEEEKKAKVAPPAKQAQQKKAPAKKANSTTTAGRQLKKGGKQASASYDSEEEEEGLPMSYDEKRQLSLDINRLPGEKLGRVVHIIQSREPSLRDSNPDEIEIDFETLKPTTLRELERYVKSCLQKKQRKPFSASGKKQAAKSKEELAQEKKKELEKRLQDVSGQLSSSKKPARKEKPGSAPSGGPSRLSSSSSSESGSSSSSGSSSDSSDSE
T2 sequence (P25440 whole entry): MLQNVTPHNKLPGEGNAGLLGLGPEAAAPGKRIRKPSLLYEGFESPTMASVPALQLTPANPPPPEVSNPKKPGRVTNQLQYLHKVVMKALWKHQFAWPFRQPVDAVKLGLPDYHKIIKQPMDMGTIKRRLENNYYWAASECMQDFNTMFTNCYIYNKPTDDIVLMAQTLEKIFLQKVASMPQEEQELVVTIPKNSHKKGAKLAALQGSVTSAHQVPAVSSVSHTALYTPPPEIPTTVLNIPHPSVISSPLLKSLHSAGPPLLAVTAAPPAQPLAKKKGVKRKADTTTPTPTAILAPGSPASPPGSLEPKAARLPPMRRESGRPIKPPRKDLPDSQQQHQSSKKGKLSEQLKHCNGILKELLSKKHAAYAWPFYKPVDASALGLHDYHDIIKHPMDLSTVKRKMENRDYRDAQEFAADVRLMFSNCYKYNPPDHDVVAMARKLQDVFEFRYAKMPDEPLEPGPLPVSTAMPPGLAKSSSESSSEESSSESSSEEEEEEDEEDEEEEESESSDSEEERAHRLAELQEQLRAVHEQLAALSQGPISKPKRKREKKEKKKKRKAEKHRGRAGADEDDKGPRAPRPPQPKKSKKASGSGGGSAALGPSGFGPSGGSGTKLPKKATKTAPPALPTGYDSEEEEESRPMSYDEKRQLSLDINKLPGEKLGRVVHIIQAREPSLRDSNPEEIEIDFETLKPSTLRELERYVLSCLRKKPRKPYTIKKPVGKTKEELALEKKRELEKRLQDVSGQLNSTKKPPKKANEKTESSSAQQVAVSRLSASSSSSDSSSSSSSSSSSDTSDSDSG

| DC50 (Brd3 [1]) [nM] | Dmax (Brd3 [1]; [13]) [%] | Dmax (Brd2 [2]) [%] | Brd4 levels (Brd4 [3]) | Dmax (Brd4 (S) [4]) [%] | Dmax (Brd4 (L) [5]) [%] | Dmax (Brd4 (S) [6]) [%] | Dmax (Brd4 (L) [7]) [%] | DC50 (Brd3 [8]) [nM] | Dmax (Brd3 [8]; [13]) [%] | Dmax (Brd2 [9]) [%] | Brd4 degradation in the presence of bortezomib or degrasyn (Brd4 [10]; HAP1, 0.1 μM compound, 0.5 h pre-treatment with 10 μM bortezomib or 5 μM degrasyn) | Brd4 protein levels (Brd4 [10]; HAP1, 0.1 μM) | Brd4 protein levels (Brd4 [11]) | Brd4 degradation in the presence of degrasyn or I-BET726 (Brd4 [12]; HEK293, 0.1 μM compound, 0.5 h pre-treatment with 5 μM degrasyn or 1 μM I-BET726) | Brd4 protein levels (Brd4 [12]; HEK293, 0.1 μM) | SMILES |
| --- | --- | --- | --- | --- | --- | --- | --- | --- | --- | --- | --- | --- | --- | --- | --- | --- |
| 51 to 500 | 26 to 50 | ≤ 25 | minimal depletion | 26 to 50 | ≤ 25 | ≤ 25 | ≤ 25 | ≤ 50 | ≤ 25 | ≤ 25 |  |  |  |  |  | CCCC(NC(=O)/C=C/c1cccc(Br)n1)c1ccc(OCCOCCOCCOCCOCCOCCOCCNC(=O)c2ccc(-c3ccc4c(c3)[C@H](Nc3ccc(Cl)cc3)C[C@H](C)N4C(C)=O)cc2)cc1 (stereo partly shown) [Example 05IB11] |
|  |  |  |  |  |  |  |  |  |  |  | only blocked by bortezomib | depletion | depletion | only blocked by I-BET726 | depletion | Cc1ncsc1-c1ccc(CNC(=O)[C@@H]2C[C@@H](O)CN2C(=O)[C@@H](NC(=O)COCCOCCOCCNC(=O)C[C@@H]2N=C(c3ccc(Cl)cc3)c3c(sc(C)c3C)-n3c(C)nnc32)C(C)(C)C)cc1 [MZ1, reference compound] |
